Columns and labels:
Conditions in all cases: exposure time: 72 h
[1] = system: E13 (patient-derived glioblastoma stem cells of classical subtype); assay: surviving fraction (nuclei count normalised to DMSO); higher = more cells surviving (less toxic)
[2] = system: E21 (patient-derived glioblastoma stem cells of mesenchymal subtype); assay: as above
[3] = system: E28 (patient-derived glioblastoma stem cells of classical subtype); assay: as above
[4] = system: E31 (patient-derived glioblastoma stem cells of proneural subtype); assay: as above
[5] = system: E34 (patient-derived glioblastoma stem cells of proneural subtype); assay: as above
[6] = system: E57 (patient-derived glioblastoma stem cells of mesenchymal subtype); assay: as above
[7] = system: FT3469 (normal neural stem cell line); assay: as above
[8] = system: E13; assay: phenotypic distance (Euclidean, principal components) from DMSO controls (arbitrary units); higher = stronger morphological change
[9] = system: E21; assay: as above
[10] = system: E28; assay: as above
[11] = system: E31; assay: as above
[12] = system: E34; assay: as above
[13] = system: E57; assay: as above
[14] = system: FT3469; assay: as above
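Wherever phenotypic distance (Euclidean, principal components) from DMSO controls is given: cell Painting imaging in 384-well plates, CellProfiler features reduced to at least 20 principal components, Euclidean distance versus same-plate DMSO vehicle wells (0.1% v/v), median over six images per well.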
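Wherever surviving fraction (nuclei count normalised to DMSO) is given: nuclei counted by high-content imaging of Hoechst-stained cells in laminin-coated 384-well plates, relative to 0.1% DMSO vehicle wells, with staurosporine as cell-death control.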

COc1ccc(/C=C\c2cc(OC)c(OC)c(OC)c2)cc1OP(=O)(O)O [Fosbretabulin Disodium]
Conditions	phenotypic distance	surviving fraction
[1], 4.1 nM	–	0.8
[1], 12.3 nM	–	0.905
[1], 37 nM	–	0.361
[1], 111.1 nM	–	0.241
[1], 333.3 nM	–	0.171
[1], 1000 nM	–	0.175
[1], 3000 nM	–	0.0977
[2], 4.1 nM	–	0.889
[2], 12.3 nM	–	0.951
[2], 37 nM	–	0.847
[2], 111.1 nM	–	0.415
[2], 333.3 nM	–	0.176
[2], 1000 nM	–	0.101
[2], 3000 nM	–	0.0981
[3], 4.1 nM	–	1.09
[3], 12.3 nM	–	1
[3], 37 nM	–	0.905
[3], 111.1 nM	–	0.938
[3], 333.3 nM	–	0.894
[3], 1000 nM	–	0.41
[3], 3000 nM	–	0.293
[4], 4.1 nM	–	0.927
[4], 12.3 nM	–	1.01
[4], 37 nM	–	0.765
[4], 111.1 nM	–	0.917
[4], 333.3 nM	–	0.54
[4], 1000 nM	–	0.123
[4], 3000 nM	–	0.0441
[5], 4.1 nM	–	0.966
[5], 12.3 nM	–	0.962
[5], 37 nM	–	1.06
[5], 111.1 nM	–	0.942
[5], 333.3 nM	–	0.86
[5], 1000 nM	–	0.521
[5], 3000 nM	–	0.348
[6], 4.1 nM	–	0.953
[6], 12.3 nM	–	0.934
[6], 37 nM	–	0.943
[6], 111.1 nM	–	0.986
[6], 333.3 nM	–	0.604
[6], 1000 nM	–	0.077
[6], 3000 nM	–	0.0927
[7], 4.1 nM	–	0.907
[7], 12.3 nM	–	1.03
[7], 37 nM	–	1.03
[7], 111.1 nM	–	0.976
[7], 333.3 nM	–	0.745
[7], 1000 nM	–	0.503
[7], 3000 nM	–	0.346
[8], 4.1 nM	1.22	–
[8], 12.3 nM	2.08	–
[8], 37 nM	5.08	–
[8], 111.1 nM	4.95	–
[8], 333.3 nM	5.64	–
[8], 1000 nM	8.31	–
[8], 3000 nM	7.96	–
[9], 4.1 nM	0.897	–
[9], 12.3 nM	0.887	–
[9], 37 nM	1.98	–
[9], 111.1 nM	5.67	–
[9], 333.3 nM	6.69	–
[9], 1000 nM	8.1	–
[9], 3000 nM	6.31	–
[10], 4.1 nM	0.427	–
[10], 12.3 nM	0.345	–
[10], 37 nM	0.559	–
[10], 111.1 nM	0.674	–
[10], 333.3 nM	1.52	–
[10], 1000 nM	3.18	–
[10], 3000 nM	3.86	–
[11], 4.1 nM	0.483	–
[11], 12.3 nM	0.846	–
[11], 37 nM	0.502	–
[11], 111.1 nM	0.681	–
[11], 333.3 nM	1.6	–
[11], 1000 nM	4.42	–
[11], 3000 nM	7.65	–
[12], 4.1 nM	0.709	–
[12], 12.3 nM	0.552	–
[12], 37 nM	0.5	–
[12], 111.1 nM	0.935	–
[12], 333.3 nM	1.29	–
[12], 1000 nM	3.14	–
[12], 3000 nM	7.56	–
[13], 4.1 nM	0.784	–
[13], 12.3 nM	0.887	–
[13], 37 nM	0.575	–
[13], 111.1 nM	1.01	–
[13], 333.3 nM	2.68	–
[13], 1000 nM	5.08	–
[13], 3000 nM	5.09	–
[14], 4.1 nM	0.525	–
[14], 12.3 nM	0.86	–
[14], 37 nM	0.542	–
[14], 111.1 nM	0.517	–
[14], 333.3 nM	1.3	–
[14], 1000 nM	2.97	–
[14], 3000 nM	3.41	–

CC(C)(Oc1ccc(C2CC2(Cl)Cl)cc1)C(=O)O (stereo unspecified) [Ciprofibrate]
Conditions	phenotypic distance	surviving fraction
[1], 4.1 nM	–	0.885
[1], 12.3 nM	–	0.896
[1], 37 nM	–	1.05
[1], 111.1 nM	–	0.961
[1], 333.3 nM	–	1.07
[1], 1000 nM	–	1.13
[1], 3000 nM	–	1
[2], 4.1 nM	–	0.982
[2], 12.3 nM	–	0.945
[2], 37 nM	–	0.898
[2], 111.1 nM	–	0.962
[2], 333.3 nM	–	0.951
[2], 1000 nM	–	1.01
[2], 3000 nM	–	0.986
[3], 4.1 nM	–	1.06
[3], 12.3 nM	–	0.804
[3], 37 nM	–	1.11
[3], 111.1 nM	–	1.06
[3], 333.3 nM	–	1.12
[3], 1000 nM	–	1.02
[3], 3000 nM	–	1.31
[4], 4.1 nM	–	1.18
[4], 12.3 nM	–	0.902
[4], 37 nM	–	0.955
[4], 111.1 nM	–	0.771
[4], 333.3 nM	–	1.06
[4], 1000 nM	–	0.889
[4], 3000 nM	–	1.06
[5], 4.1 nM	–	1.07
[5], 12.3 nM	–	0.868
[5], 37 nM	–	0.894
[5], 111.1 nM	–	0.945
[5], 333.3 nM	–	0.986
[5], 1000 nM	–	0.988
[5], 3000 nM	–	1.08
[6], 4.1 nM	–	0.918
[6], 12.3 nM	–	1.04
[6], 37 nM	–	0.934
[6], 111.1 nM	–	0.991
[6], 333.3 nM	–	1.03
[6], 1000 nM	–	0.983
[6], 3000 nM	–	1.06
[7], 4.1 nM	–	0.859
[7], 12.3 nM	–	0.891
[7], 37 nM	–	0.979
[7], 111.1 nM	–	0.92
[7], 333.3 nM	–	0.926
[7], 1000 nM	–	0.886
[7], 3000 nM	–	0.947
[8], 4.1 nM	0.888	–
[8], 12.3 nM	0.449	–
[8], 37 nM	0.462	–
[8], 111.1 nM	0.363	–
[8], 333.3 nM	0.62	–
[8], 1000 nM	0.655	–
[8], 3000 nM	0.745	–
[9], 4.1 nM	1.13	–
[9], 12.3 nM	1.12	–
[9], 37 nM	1.06	–
[9], 111.1 nM	0.721	–
[9], 333.3 nM	0.996	–
[9], 1000 nM	0.59	–
[9], 3000 nM	0.683	–
[10], 4.1 nM	1.01	–
[10], 12.3 nM	0.813	–
[10], 37 nM	0.864	–
[10], 111.1 nM	0.823	–
[10], 333.3 nM	0.782	–
[10], 1000 nM	0.776	–
[10], 3000 nM	0.735	–
[11], 4.1 nM	0.865	–
[11], 12.3 nM	0.469	–
[11], 37 nM	0.691	–
[11], 111.1 nM	0.704	–
[11], 333.3 nM	0.816	–
[11], 1000 nM	0.949	–
[11], 3000 nM	0.985	–
[12], 4.1 nM	0.978	–
[12], 12.3 nM	0.753	–
[12], 37 nM	0.669	–
[12], 111.1 nM	0.8	–
[12], 333.3 nM	0.886	–
[12], 1000 nM	0.675	–
[12], 3000 nM	1.09	–
[13], 4.1 nM	0.79	–
[13], 12.3 nM	0.645	–
[13], 37 nM	0.985	–
[13], 111.1 nM	0.544	–
[13], 333.3 nM	0.513	–
[13], 1000 nM	5.6	–
[13], 3000 nM	0.728	–
[14], 4.1 nM	0.922	–
[14], 12.3 nM	0.62	–
[14], 37 nM	0.718	–
[14], 111.1 nM	0.814	–
[14], 333.3 nM	0.871	–
[14], 1000 nM	0.441	–
[14], 3000 nM	0.507	–

From the supplement of paper PMC13207355
